Results: patent US6679922B1, “Pesticide protective articles” (priority 1998, dated 2004)
Values joined by “and” are separate entries in the source; they are usually repeats but may differ in a detail not shown here. Equal values may be shown once.

What was measured:
[1] = Pesticide reduction at various pesticide/chlorine ratios; details: Pesticide/Chlorine Ratio 1:4
Description: In certain aspects, the concentration of the pesticide (e.g., methomyl) that was exposed to the fabric was proportional to the percent reduction of the pesticide. Without being bound by a particular theory, it is believed that the pesticide/halamine ratio is more critical to reduction than the actual contact time of the pesticide with the fabric. A pesticide to halamine ratio of about 10:1 to about 1:10 is suitable for the present methods, preferably, a ratio of about 5:1 to about 1:5 is used and, more preferably, a ratio of about […] is used.

[2] = chlorine/methomyl ratio of 10 to 1; cited from earlier work
[3] = cited from earlier work
[4] = Detoxification of pesticides on cotton/polyester fabrics treated with DMDMH and chlorine bleach, percentage reduction by GC; details: 6% DMDMH, 5 min contact
Experimental: Polyester/cotton fabrics were washed in a domestic washing machine at 50° C. prior to the actual treatment of the functional compounds.
The grafting of hydantoin ring onto the cotton/polyester fabrics was carried out using a wet finishing process. The weighed fabrics were submerged into an aqueous 6% (w/w) DMDMH solution for 5 min. and then wringed through a padder to secure a wet pickup of 70-100% through a 2 dip-2 nip cycle. These wet fabrics were then oven-dried at 85° C. for 5 min. and cured at 150° C. for 5 min. Following this, the fabrics were washed in water at 50° C. for 30 min. to remove any excess chemicals on the surface of the fabrics.
After the wet finishing process, the treated fabrics were bleached with solutions containing 0.01% and 0.1% (w/v) active chlorine content. The treated fabrics were submerged into aqueous bleach solution at one of the specified concentrations at 25° C. for 15 min. Then, the fabrics were air dried and stored at standard condition (25° C., 65% relative humidity). The chemically finished fabrics were then cut into 3×3 inches square swatches for exposure to pesticides in the subsequent testing.
Methomyl and aldicarb were dissolved in methanol at three different concentrations: 250, 500 and 1000 ppm. One mL of one of these pesticide solutions was directly loaded onto a fabric swatch. A contact time of 5 min. was allowed before the exposed fabric was extracted in organic solvent for detoxification assessment and degradation analysis. Fabrics that were not treated with DMDMH and bleach were also used as control samples.
The extraction of the exposed swatches was done by soaking a swatch into an initial volume of 50 mL ethyl acetate for 15 min. with vigorous agitation. The extraction was repeated with another 50 mL of ethyl acetate; the combined 100 mL of the extracted solvent was reduced to 2 mL in volume by rotor-evaporation under partial vacuum at 40° C. To this 2-mL sample, 1 μL of 2-ethyl-5-methyl pyridine was added as an internal standard for quantitation during the chromatographic analysis. After which, 1 μL of the extracted sample was injected into a gas chromatograph.
Gas chromatography was performed on a Hewlett Packard 5890 series II GC, equipped with a nitrogen-phosphorus detector (NPD), using a 15 m×0.25 mm I.D. DB-1 column, 0.25 μm film (J&W Co.). The temperature program was initially set at 100° C. for 3 min., raised at a rate of 7° C./min. to 250° C. and held for 5 min. The injector and detector were set at 250° C. and 280° C. respectively. Helium was used as the carrier gas at a flow rate of 0.84 mL/min; hydrogen flow rate was 2.98 mL/min; nitrogen flow rate was 29.16 mL/min. A split injection was used at a split ratio of 25:1. The responses of the resulting peak areas and relative peak areas were integrated and recorded using a HP 3396 II integrator. For each sample, at least three or more repetitions at each condition were carried out.
Using the materials and methods sets forth above, three different concentrations of methomyl were detoxified by halamine structures on the fabrics. Relative peak area response factors (peak area response of pesticide divided by peak area response of internal standard) of the control fabrics were used to determine the original amount of pesticide on the fabrics at 0% reduction. […] After this difference was divided by the original amount, it was expressed as the percentage reduction of pesticide at those various concentrations.

[5] = tested on: male rats; details: cited from earlier work

Compound	Pesticide Reduction (%) [1] [%]	disappearance in aqueous solution [2]	Vapor Pressure mm Hg (25-30° C.) [3]	percentage reduction of pesticide ([4]; 250 ppm pesticide, 0.01% active chlorine treatment)	percentage reduction of pesticide ([4]; 250 ppm pesticide, 0.1% active chlorine treatment) [%]	percentage reduction of pesticide ([4]; 500 ppm pesticide, 0.1% active chlorine treatment) [%]	percentage reduction of pesticide ([4]; 1000 ppm pesticide, 0.01% active chlorine treatment)	percentage reduction of pesticide ([4]; 1000 ppm pesticide, 0.1% active chlorine treatment)	Toxicity, mg/kg (LD50, male rats) [5] [mg/kg]
CNC(=O)Oc1cccc2c1OC(C)(C)C2 [Carbofuran]	13.82								
CNC(=O)ON=C(C)SC [Methomyl, S-methyl N-(methyl carbamoyloxy) thioacetimidatel]	79.52	disappear rapidly	5 × 10^−5 mm Hg	9.35% and 9.4%	19.9	18.6	4.43% and 4.4%	11.63% and 11.6%	21
CNC(=O)Oc1cccc2ccccc12 [Carbaryl]	8.02								
